Data: PubChem BioAssay (NCI)
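Each compound was tested at five concentrations against cells in 96-well plates for 48 hours. At the GI50, growth is halved. TGI is the concentration that stops growth completely.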

What was measured:
Test in all cases: growth of human tumour cells (NCI), 48 h
[1] = test system: 786-0 renal
[2] = test system: A498 renal
[3] = test system: A549 NSCLC
[4] = test system: ACHN renal
[5] = test system: BT-549 breast
[6] = test system: CAKI-1 renal
[7] = test system: CCRF-CEM leukemia
[8] = test system: COLO 205 colon
[9] = test system: DU-145 prostate
[10] = test system: EKVX NSCLC
[11] = test system: HCC-2998 colon
[12] = test system: HCT-116 colon
[13] = test system: HCT-15 colon
[14] = test system: HL-60(TB) leukemia
[15] = test system: HOP-62 NSCLC
[16] = test system: HOP-92 NSCLC
[17] = test system: HS 578T breast
[18] = test system: HT29 colon
[19] = test system: IGROV1 ovarian
[20] = test system: K-562 leukemia
[21] = test system: KM12 colon
[22] = test system: LOX IMVI melanoma
[23] = test system: M14 melanoma
[24] = test system: MALME-3M melanoma
[25] = test system: MCF7 breast
[26] = test system: MDA-MB-231 breast
[27] = test system: MDA-MB-435
[28] = test system: MOLT-4 leukemia
[29] = test system: NCI-H23 lung
[30] = test system: NCI-H460 lung
[31] = test system: NCI-H522 lung
[32] = test system: NCI/ADR-RES ovarian
[33] = test system: OVCAR-3 ovarian
[34] = test system: OVCAR-4 ovarian
[35] = test system: OVCAR-5 ovarian
[36] = test system: OVCAR-8 ovarian
[37] = test system: PC-3 prostate
[38] = test system: RPMI-8226 leukemia
[39] = test system: RXF 393 renal
[40] = test system: SF-268 CNS
[41] = test system: SF-295 CNS
[42] = test system: SF-539 CNS
[43] = test system: SK-MEL-2 melanoma
[44] = test system: SK-MEL-28 melanoma
[45] = test system: SK-MEL-5 melanoma
[46] = test system: SK-OV-3 ovarian
[47] = test system: SN12C renal
[48] = test system: SNB-19 CNS
[49] = test system: SNB-75 CNS
[50] = test system: SR leukemia
[51] = test system: SW-620 colon
[52] = test system: T-47D breast
[53] = test system: TK-10 renal
[54] = test system: U251 CNS
[55] = test system: UACC-257 melanoma
[56] = test system: UACC-62 melanoma
[57] = test system: UO-31 renal

`O=C1CCC/C=C\C[C@H]2C=CC(=O)/C2=C/C[C@H](CCc2cccc(C(F)(F)F)c2)O1` was tested, and the GI50 [1] was 1.99 µM, the TGI [1] was 3.68 µM and the GI50 [2] was 1.68 µM. It also gave a TGI [2] of 3.22 µM, a GI50 [3] of 2.31 µM and a TGI [3] of 5.56 µM. It also gave a GI50 [4] of 1.19 µM, a TGI [4] of 2.6 µM and a GI50 [5] of 2.57 µM. For the same compound, the TGI [5] was 7.99 µM, the GI50 [6] was 4.04 µM and the TGI [6] was 16 µM. For the same compound, the GI50 [7] was 0.397 µM, the TGI [7] was 11.4 µM and the GI50 [8] was 1.58 µM. For the same compound, the TGI [8] was 4.16 µM, the GI50 [9] was 1.66 µM and the TGI [9] was 4.58 µM. For the same compound, the GI50 [10] was 1.94 µM, the TGI [10] was 4.08 µM and the GI50 [11] was 2.01 µM. It also gave a TGI [11] of 3.54 µM, a GI50 [12] of 0.327 µM and a TGI [12] of 1.48 µM. The GI50 [13] was 1.23 µM, the TGI [13] was 4.07 µM and the GI50 [14] was 2.1 µM. The TGI [14] was 6.88 µM, the GI50 [15] was 2.84 µM and the TGI [15] was 6.83 µM. For the same compound, the GI50 [16] was 2.29 µM, the TGI [16] was 4.77 µM and the GI50 [17] was 4.78 µM. It also gave a TGI [17] of 56.7 µM, a GI50 [18] of 1.11 µM and a TGI [18] of 3.39 µM. For the same compound, the GI50 [19] was 3.06 µM, the TGI [19] was 9.53 µM and the GI50 [20] was 0.692 µM. It also gave a TGI [20] of 6.44 µM, a GI50 [21] of 1.64 µM and a TGI [21] of 3.35 µM. The GI50 [22] was 0.44 µM, the TGI [22] was 1.82 µM and the GI50 [23] was 1.76 µM. It also gave a TGI [23] of 5.32 µM, a GI50 [24] of 2.25 µM and a TGI [24] of 7.1 µM. For the same compound, the GI50 [25] was 0.287 µM, the TGI [25] was 2.58 µM and the GI50 [26] was 4.41 µM. The TGI [26] was 18.2 µM, the GI50 [27] was 0.462 µM and the TGI [27] was 2.7 µM. For the same compound, the GI50 [28] was 2.14 µM, the TGI [28] was 6.26 µM and the GI50 [29] was 2.16 µM. For the same compound, the TGI [29] was 5.89 µM, the GI50 [30] was 3.18 µM and the TGI [30] was 10.1 µM. The GI50 [31] was 1.23 µM, the TGI [31] was 3.77 µM and the GI50 [32] was 0.748 µM. The TGI [32] was 11.3 µM, the GI50 [33] was 1.46 µM and the TGI [33] was 3.23 µM. It also gave a GI50 [34] of 3.78 µM, a TGI [34] of 15.9 µM and a GI50 [35] of 4.05 µM. It also gave a TGI [35] of 11.3 µM, a GI50 [36] of 0.495 µM and a TGI [36] of 5.64 µM. It also gave a GI50 [37] of 1.79 µM, a TGI [37] of 4.74 µM and a GI50 [38] of 0.628 µM. The TGI [38] was 6.73 µM, the GI50 [39] was 1.66 µM and the TGI [39] was 3.08 µM. For the same compound, the GI50 [40] was 2.77 µM, the TGI [40] was 8.3 µM and the GI50 [41] was 2.15 µM. For the same compound, the TGI [41] was 4.83 µM, the GI50 [42] was 2.61 µM and the TGI [42] was 6.81 µM. The GI50 [43] was 2.06 µM, the TGI [43] was 4.94 µM and the GI50 [44] was 2.56 µM. The TGI [44] was 6.75 µM, the GI50 [45] was 1.69 µM and the TGI [45] was 3.09 µM. It also gave a GI50 [46] of 2.92 µM, a TGI [46] of 7.75 µM and a GI50 [47] of 3.66 µM. It also gave a TGI [47] of 12.9 µM, a GI50 [48] of 2.22 µM and a TGI [48] of 7.04 µM. For the same compound, the GI50 [49] was 2.02 µM, the TGI [49] was 5.21 µM and the GI50 [50] was 0.627 µM. The TGI [50] was 5.62 µM, the GI50 [51] was 2.87 µM and the TGI [51] was 9.06 µM. The GI50 [52] was 1.78 µM, the TGI [52] was 7.12 µM and the GI50 [53] was 2.66 µM. It also gave a TGI [53] of 5.19 µM, a GI50 [54] of 1.26 µM and a TGI [54] of 2.85 µM. For the same compound, the GI50 [55] was 2.11 µM, the TGI [55] was 5.18 µM and the GI50 [56] was 2.34 µM. It also gave a TGI [56] of 7.52 µM, a GI50 [57] of 1.57 µM and a TGI [57] of 3 µM.
